“Also recorded” adds a separate entry of the source. Read-outs that look alike come from different tables or passages of the source.
What was measured:
Jurkat T cells [1] = experiment: Inhibition of Jurkat T cell growth (GI50), MTS assay; assay type: cell-based; conditions: Homo sapiens
Description: These compounds were selected for further testing to estimate their 50% growth inhibition (GI50) value. Standard antileukemic drugs mercaptopurine, methotrexate and cytarabine were chosen as positive controls.
(§1) An MTS (3-(4,5-dimethylthiazol-2-yl)-5-(3-carboxymethoxyphenyl)-2-(4-sulfophenyl)-2H-tetrazolium inner salt) assay[20] was used to assess the leukemic cell viability. Jurkat T cells (human leukemic T cell, clone E6-1) from American Type Culture Collection (ATCC) were cultured in RPMI-1640 medium (Nacalai Tesque, Japan) supplemented with 10% v/v fetal bovine serum (FBS) (Biosera, France). The cells were maintained at 37 °C in a humidified 5% CO2 incubator (Thermo Fisher, USA). A total of 2 × 10^3 cells per 100 μL cell culture media were seeded into each well of a 96-well plate and incubated for 24 h. Then, tested compounds or reference drugs [6-mercaptopurine (Merck Millipore, Germany), methotrexate (Merck Millipore, Germany) and cytarabine (Merck Millipore, Germany)] were added, followed by incubation for 72 h. After that, a mixture of MTS (Sigma Aldrich, USA) and phenazine methosulfate (PMS) (Nacalai Tesque, Japan) were added to each well, followed by another incubation for 1 h to 4 h at 37 °C. The absorbance in each well was measured at 490 nm using a microplate reader (Tecan NanoQuant Infinite M200 Pro, Austria). The percentage of cell viability was estimated by comparing absorbance in wells with the treated and untreated (vehicle control) cells using the following formula: ODtreated/ODuntreated × 100%. All experiments were performed in triplicate and repeated in three independent experiments. The GI50 values were calculated using sigmoidal concentration-response curves generated by the GraphPad Prism 8 program.[21]

Jurkat T cells [2] = experiment: Antiproliferative screening at 10 μM, MTS assay; assay type: cell-based, human; conditions: Homo sapiens; Jurkat T cells, 10 μM, 72 h after treatment, MTS; mean of three independent experiments; read-out: Cell viability (%)
Description: The Jurkat T cell line was chosen for its reliability as a model for chemotherapeutic studies, particularly in T-cell leukemia.[13]
as §1, with “Jurkat T cells (human leukemic T cell, clone E6-1) from American Type Culture Collection (ATCC) were cultured in RPMI-1640 medium (Nacalai Tesque, Japan) supplemented with 10% v/v fetal bovine serum (FBS) (Biosera, France). The cells were maintained at 37 °C in a humidified 5% CO2 incubator (Thermo Fisher, USA).” left out, “After that, a mixture of MTS (Sigma Aldrich, USA) and phenazine methosulfate (PMS) (Nacalai Tesque, Japan) were added to each well, followed by another incubation for 1 h to 4 h at 37 °C.” left out

Jurkat T cells [3] = experiment: AO/PI double fluorescence staining, cell morphology study; assay type: cell-based, human; conditions: treatment at GI50 concentration, 24 h, 48 h, 72 h
Description: The GI50 value for this compound was selected as the treatment concentration. […] Moreover, some Jurkat T cells underwent late stages of apoptosis as shown by the reddish-orange stain (Fig. 4C). Similar events also occurred 48 h and 72 h after the treatment but with a lower number of viable cells (Fig. 4D and E).
Fluorescence microscopy was applied to portray apoptotic and necrotic changes in Jurkat T cells using AO/PI fluorescence staining.[23] The Jurkat T cells were cultured as described above. A total of 5 × 10^5 cells (based on the doubling time for the cell line) per 1 mL cell culture media were seeded into each well of a 6-well plate (Biologix, USA) and incubated for 24 h. […] The fluorescence dye containing AO (10 μg mL^−1, 16 μL) and PI (10 μg mL^−1, 13 μL) was prepared immediately prior to use. The treated cells, positive and negative controls containing dyes were examined immediately under an inverted UV-fluorescent microscope (Nikon Ti2-E, Japan) to prevent fluorescence dyes from fading. The images of viable cells and non-viable cells after treatment were taken by Nikon Ti2-E software. The observations were repeated in three independent experiments.

[4] = GI50 against Jurkat T cells converted to negative logarithmic scale, read-out: Experimental pGI50 (converted)
[5] = concentration required to inhibit Jurkat T cell growth by 50%, 72 h, MTS, mean of three independent experiments, read-out: GI50 ± SEM

melting point | GI50 (Jurkat T cells [1]; [4]) | GI50 (Jurkat T cells [1]; [5]) | SMILES | viability at 10 µM (Jurkat T cells [2]) | Jurkat T cell morphology, type of cell death (AO/PI staining) (Jurkat T cells [3])
145 to 146 °C | 1150 nM | 1140 ± 130 nM | Cc1cccc(-c2nc(N)nc(N3CCc4ccccc4C3)n2)c1 [9{6,5}, 6-(3-Methylphenyl)-4-(3,4-dihydroisoquinolin-2(1H)-yl)-1,3,5-triazine-2-amine] | 2% | 
166 to 167 °C | 1780 nM | 1790 ± 580 nM | Cc1ccc(-c2nc(N)nc(N3CCc4ccccc4C3)n2)cc1 [9{6,6}, 6-(4-Methylphenyl)-4-(3,4-dihydroisoquinolin-2(1H)-yl)-1,3,5-triazine-2-amine] | 4% | 
162 to 164 °C | 2450 nM | 2430 ± 570 nM | CC(C)(C)c1ccc(-c2nc(N)nc(N3CCc4ccccc4C3)n2)cc1 [9{6,7}, 6-[4-(tert-Butyl)phenyl]-4-(3,4-dihydroisoquinolin-2(1H)-yl)-1,3,5-triazine-2-amine] | 1% | 
165 to 166 °C | 29500 nM | 29600 ± 2200 nM | COc1ccc(-c2nc(N)nc(N3CCc4ccccc4C3)n2)cc1 [9{6,9}, 6-(4-Methoxyphenyl)-4-(3,4-dihydroisoquinolin-2(1H)-yl)-1,3,5-triazine-2-amine] | 14% | 
181 to 182 °C | 3240 nM | 3230 ± 160 nM | Nc1nc(-c2ccc(C(F)(F)F)cc2)nc(N2CCc3ccccc3C2)n1 [9{6,11}, 6-[4-(Trifluoromethyl)phenyl]-4-(3,4-dihydroisoquinolin-2(1H)-yl)-1,3,5-triazine-2-amine] | 3% | 
119 to 120 °C | 1170 nM | 1180 ± 220 nM | Nc1nc(-c2ccc(OC(F)(F)F)cc2)nc(N2CCc3ccccc3C2)n1 [9{6,12}, 6-[4-(Trifluoromethoxy)phenyl]-4-(3,4-dihydroisoquinolin-2(1H)-yl)-1,3,5-triazine-2-amine] | 3% | 
128 to 129 °C | 1550 nM | 1540 ± 660 nM | Nc1nc(-c2cccc(Oc3ccccc3)c2)nc(N2CCc3ccccc3C2)n1 [9{6,13}, 4-(3,4-Dihydroisoquinolin-2(1H)-yl)-6-(3-phenoxyphenyl)-1,3,5-triazine-2-amine] | 4% | 
143 to 144 °C | 6610 nM | 6540 ± 340 nM | Nc1nc(-c2cccc(OCc3ccccc3)c2)nc(N2CCc3ccccc3C2)n1 [9{6,14}, 6-(3-(Benzyloxy)phenyl)-4-(3,4-dihydroisoquinolin-2(1H)-yl)-1,3,5-triazine-2-amine] | 23% | 
159 to 160 °C | 11700 nM | 11600 ± 2120 nM | COc1ccc(-c2nc(N)nc(N3CCc4ccccc4C3)n2)cc1OC [9{6,16}, 6-(3,4-Dimethoxyphenyl)-4-(3,4-dihydroisoquinolin-2(1H)-yl)-1,3,5-triazin-2-amine] | 23% | 
195 to 196 °C | 1910 nM | 1890 ± 480 nM | Nc1nc(-c2ccc(F)cc2)nc(N2CCc3ccccc32)n1 [9{7,3}, 6-(4-Fluorophenyl)-4-(indolin-1-yl)-1,3,5-triazine-2-amine] | 35% | 
226 to 227 °C | 2140 nM | 2120 ± 970 nM | CN(C)c1ccc(-c2nc(N)nc(N3CCc4ccccc43)n2)cc1 [9{7,8}, 6-[4-(N,N-Dimethylamino)phenyl]-4-(indolin-1-yl)-1,3,5-triazine-2-amine] | 30% | 
188 to 189 °C | 22900 nM | 23070 ± 80 nM | Nc1nc(-c2ccc(OCc3ccccc3)cc2)nc(N2CCc3ccccc32)n1 [9{7,15}, 6-(4-(Benzyloxy)phenyl)-4-(indolin-1-yl)-1,3,5-triazine-2-amine] | 32% | 
199 to 200 °C | 6760 nM | 6730 ± 430 nM | COc1cc(-c2nc(N)nc(N3CCc4ccccc43)n2)cc(OC)c1OC [9{7,17}, 6-(3,4,5-Trimethoxyphenyl)-4-(indolin-1-yl)-1,3,5-triazine-2-amine] | 10% | 
163 to 164 °C | 6030 nM | 6030 ± 640 nM | Nc1nc(-c2cccs2)nc(N2CCc3ccccc32)n1 [9{7,18}, 4-(Indolin-1-yl)-6-(2-thienyl)-1,3,5-triazine-2-amine] | 20% | 
 | 1020 nM | 1020 ± 300 nM | Nc1nc(-c2cccc(F)c2)nc(N2CCc3ccccc3C2)n1 [Compound 9{6,2}, 6-(3-Fluorophenyl)-4-(3,4-dihydroisoquinolin-2(1H)-yl)-1,3,5-triazine-2-amine] | 1% | necrotic type of cell death; also recorded: probably involved aponecrosis; also recorded: triggered the aponecrosis
 |  | 370 ± 30 nM | CN(Cc1cnc2nc(N)nc(N)c2n1)c1ccc(C(=O)N[C@@H](CCC(=O)O)C(=O)O)cc1 [Methotrexate, methotrexate, reference compound] |  | induced the late apoptotic morphological changes

From PMC10925993, “6-Aryl-4-cycloamino-1,3,5-triazine-2-amines: synthesis, antileukemic activity, and 3D-QSAR modelling” (RSC Advances, 2024)
